Test results: patent EP4782431A1 (Suzhou Merna Therapeutics Co. Ltd, priority 2023, dated 2025)

Legend:
[1] = system: HaCaT cells; experiment: m6A methylation level of human keratinocytes (EpiQuik m6A RNA methylation quantification kit); type: cell-based; details: for m6A fold change: 24 hours
Procedure: HaCaT cells were cultured in DMEM culture medium containing 10% fetal bovine serum, 100 U/mL penicillin, and 100 µg/mL streptomycin. Culture dishes were placed in an incubator containing 5% CO2 for culture at 37°C for 24 hours. An equal volume of DMSO was added in control group 1, 50 nM sorafenib, capecitabine, docetaxel, and osimertinib were respectively added in control groups A, B, C, and D, and 400 nM test compounds or nicotinamide were respectively added in sample groups A1, A2, B1, B2, C1, C2, D1, and D2 after the addition of 50 nM corresponding compounds. The cells were continuously cultured for 24 hours, washed with PBS, and then collected by high-speed centrifugation. Total RNA was extracted using Trizol reagent (Sigma Aldrich), and RNA m6A methylation of a sample was quantitatively detected using an EpiQuik m6A RNA methylation quantification kit. The concentrations of positive control samples for a standard curve were 0.01 ng/µl, 0.02 ng/µl, 0.05 ng/µl, 0.1 ng/µl, 0.2 ng/µl, and 0.5 ng/µl. The absorbance at 450 nm was read using a microplate reader (Tecan GENios). A quantitative calculation formula for m6A is as follows: m6A(ng) = (absorbanceofsamplewell−absorbanceofbackroundwell)/slope of standard curve [formula] m6A(%) = m6A(ng)/RNA amount of sample(ng)*100%. [formula]

[2] = system: HaCaT cells; experiment: m6A methylation level of drug-treated HaCaT keratinocytes by nanopore sequencing; type: cell-based, human; details: 50 nM drug, 24 hours, vs blank control group
Procedure: 1*10^8 HaCaT cells were seeded in culture dishes, into which 50 nM drugs (including sorafenib, capecitabine, docetaxel, and osimertinib) were added, respectively. The cells were cultured in an incubator containing 5% CO2 at 37°C for 24 hours and washed with PBS after culture media were removed. Centrifugation was performed, the supernatant was discarded, and then, 400 µL of an RLT cell lysis buffer (QIAGEN, Cat.#79216) was added. A portion of samples were selected, into which 400 µL of 70% ethanol was added. The mixture was evenly stirred and then transferred to an RNeasy mini column, and RNA was extracted using an RNeasy mini kit (QIAGEN, Cat.#74104). 2 µL of an RNA sample was selected and dissolved in 98 µL of a 10 mM Tris-HCl buffer solution, and the absorbance at 260 nm was measured using a Nanodrop (Thermo Fisher Scientific) to determine the RNA concentration.
40 µg of an RNA sample was selected for enrichment of mRNA (PolyA+RNA) using an NEBNext Poly(A) mRNA magnetic isolation module (NEB, Cat.#E7490), and then, a 3' end of the above enriched mRNA (PolyA+RNA) molecule was ligated with reverse transcription adapter RTA using a direct RNA sequencing kit (Oxford Nanopore Technologies, Cat.#SQK-RNA002). A reverse transcription reaction was performed with the mRNA (PolyA+RNA) molecule as a template to synthesize a complementary strand, a terminal end of the reverse transcription adapter RTA was ligated with a sequencing adapter (RNA adapter) to form a final sequencing library, and quantitative detection was performed using a Qubit™ dsDNA HS assay kit (Invitrogen, Cat.#LOT2133187).
After quality inspection of the library, the prepared sequencing library was loaded onto a PromethION flow cell chip (Oxford Nanopore Technologies, Cat.#FLO-MIN106D), and placed in a PromethION sequencer (Oxford Nanopore Technologies) for sequencing by selecting a matched sequencing mode. Basecalling was performed on sequencing data through guppy, and m6A methylation analysis was performed on original fast5 data.

[3] = 400 nM after 50 nM capecitabine, relative to control group 1
[4] = 400 nM after 50 nM docetaxel, relative to control group 1
[5] = 400 nM after 50 nM osimertinib, relative to control group 1
[6] = 400 nM after 50 nM sorafenib, relative to control group 1
[7] = 50 nM drug alone, relative to control group 1 (DMSO)

| SMILES | abnormal increase in the RNA m6A level of human keratinocytes caused by chemotherapeutic drugs and multikinase inhibitors ([1]; 400 nM) | m6A fold change [1, 3] [fold] | m6A fold change [1, 4] [fold] | m6A fold change [1, 5] [fold] | m6A fold change [1, 6] [fold] | m6A methylation levels of HaCaT cells higher than that of the control group [2] [fold] | m6A fold change [1, 7] [fold] |
| --- | --- | --- | --- | --- | --- | --- | --- |
| NC(=O)[C@H]1CCCc2c1[nH]c1ccc(Cl)cc21 [Compound of formula (I), (S)-6-chloro-2,3,4,9-tetrahydro-1H-carbazole-carboxamide] | effectively inhibit | 1.1 | 1.0 | 1.2 | 1.4 | – | – |
| NC(=O)c1cccnc1 [Nicotinamide, nicotinamide] | – | 4.5 | 5.4 | 5.0 | 4.7 | – | – |
| C=CC(=O)Nc1cc(Nc2nccc(-c3cn(C)c4ccccc34)n2)c(OC)cc1N(C)CCN(C)C [Osimertinib, osimertinib] | – | – | – | – | – | 5.13 | 4.8 |
| CNC(=O)c1cc(Oc2ccc(NC(=O)Nc3ccc(Cl)c(C(F)(F)F)c3)cc2)ccn1 [Sorafenib, sorafenib] | – | – | – | – | – | 5.05 | 4.5 |
